Laboratory results as given in patent publication US20070032418A1, “Small-molecule inhibitors of angiogenin and rnases and in vivo and in vitro methods of using same” (Ambion, Inc, priority 2003, published 2007).
Like-named read-outs stand apart in the source and are kept apart here.

Biological target: angiogenin (ANG) (Homo sapiens, UniProt P03950)
Experiment: Inhibition of ANG ribonucleolytic activity, HPLC assay of oligonucleotide cleavage
Type: biochemical
Description: Reaction mixtures with and without test compounds were chromatographed on a Mono Q anion-exchange column with an NaCl gradient in 10 mM Tris, pH 8. […] This information was used to calculate kcat/Km values, which were then fitted to the equation (kcat/Km)i=(kcat/Km)0/[…], where (kcat/Km)i and (kcat/Km)0 are defined as the values in the presence and absence of inhibitor, respectively, and [I] is defined as the inhibitor concentration. At least four concentrations (in a range of about 10 μM-above 100 μM) were used in the final hit confirmation in order to distinguish all true hits.
Chemical structures of selected compounds are shown in these Tables and in FIGS. 4 and 5.

[1] = inhibition of ANG-catalyzed cleavage of an RNA oligonucleotide, 20 mM Hepes, 100 mM NaCl, 37° C.

Sequence of angiogenin (ANG) (P03950 25-147): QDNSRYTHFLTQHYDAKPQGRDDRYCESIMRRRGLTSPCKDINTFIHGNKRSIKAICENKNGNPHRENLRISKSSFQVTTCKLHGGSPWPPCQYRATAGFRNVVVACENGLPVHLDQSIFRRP

Ki (read-out: KI) [µM] | SMILES | other results
60 | O=S(=O)(O)c1ccc2c(/N=N/c3ccc(S(=O)(=O)O)c4ccccc34)c(O)c(S(=O)(=O)O)cc2c1 [Amaranth] | 
~600 | Nc1ccc(C(=O)Nc2ccc(C(=O)Nc3ccc4c(O)cc(S(=O)(=O)O)cc4c3)cc2)cc1 [NCI-1741] | 
14 | Cc1cc(-c2ccc(/N=N/c3c(N)c(S(=O)(=O)O)cc4cc(S(=O)(=O)O)ccc34)c(C)c2)ccc1/N=N/c1cc(S(=O)(=O)O)c2ccccc2c1N [NCI-7815] | 
158 | O=S(=O)(O)c1cc(/N=N/c2c(O)ccc3ccccc23)c2c(O)c(/N=N/c3ccc(S(=O)(=O)O)c4ccccc34)c(S(=O)(=O)O)cc2c1 [NCI-8674] | 
336 | O=C(Nc1ccc2cc(S(=O)(=O)O)cc(S(=O)(=O)O)c2c1)Nc1ccc2cc(S(=O)(=O)O)cc(S(=O)(=O)O)c2c1 [NCI-12857] | 
5.5 | Cc1cc(-c2ccc(/N=N/c3c(N)c(S(=O)(=O)O)cc4cc(S(=O)(=O)O)ccc34)c(C)c2)ccc1/N=N/c1c(N)ccc2cc(S(=O)(=O)O)ccc12 [NCI-16224, direct red 34] | 
172 | Nc1ccc(/N=N/c2ccc(/C=C/c3ccc(/N=N/c4ccc(N)c5ccc(S(=O)(=O)O)cc45)cc3S(=O)(=O)O)c(S(=O)(=O)O)c2)c2cc(S(=O)(=O)O)ccc12 [NCI-34933] | 
245 | O=C(O)c1cc(O)c(O)c(OC(=O)c2cc(O)c(O)c(O)c2CNc2ccc3cc(S(=O)(=O)O)cc(S(=O)(=O)O)c3c2)c1 [NCI-42067] | 
75 | O=C(Nc1ccc2cc(S(=O)(=O)O)ccc2c1)c1ccc(/N=N/c2cc(S(=O)(=O)O)c3ccccc3c2O)cc1 [NCI-45608] | 
84 | COc1cc(/N=N/c2cc(S(=O)(=O)O)cc3cc(S(=O)(=O)O)cc(O)c23)c(C)cc1/N=N/c1c(S(=O)(=O)O)cc2cc(Nc3ccccc3)ccc2c1O [NCI-47755] | 
23 | Cc1cc(-c2ccc(/N=N/c3c(O)ccc4cc(S(=O)(=O)O)cc(S(=O)(=O)O)c34)c(C)c2)ccc1/N=N/c1c(O)c(S(=O)(=O)O)cc2cc(S(=O)(=O)O)ccc12 [NCI-65568] | 
108 | Cc1cc(/N=N/c2ccc(NC(=O)c3ccccc3)c3ccc(S(=O)(=O)O)cc23)ccc1/N=N/c1ccc2c(O)cc(S(=O)(=O)O)cc2c1 [NCI-65844] | 
3 | Cc1cc(NC(=O)c2ccc(/N=N/c3c(O)c(S(=O)(=O)O)cc4cc(S(=O)(=O)O)ccc34)cc2)ccc1/N=N/c1ccc2cc(S(=O)(=O)O)cc(S(=O)(=O)O)c2c1 [NCI-65845] | 
38 | Cc1cc(/N=N/c2ccc(/N=N/c3c(O)c(S(=O)(=O)O)cc4cc(S(=O)(=O)O)ccc34)cc2C)ccc1/N=N/c1ccc2cc(S(=O)(=O)O)cc(S(=O)(=O)O)c2c1 [NCI-65847] | 
125 | O=S(=O)(O)c1cc(O)c2c(/N=N/c3ccc(/N=N/c4c(S(=O)(=O)O)cc5cc(Nc6ccccc6)ccc5c4O)c4ccccc34)cc(S(=O)(=O)O)cc2c1 [NCI-75916] | 
195 | Nc1ccc2c(O)c(/N=N/c3ccc(-c4ccc(/N=N/c5c(S(=O)(=O)O)cc6cc(S(=O)(=O)O)c(/N=N/c7cc(Cl)ccc7Cl)c(N)c6c5O)cc4)cc3)c(S(=O)(=O)O)cc2c1 [NCI-77521] | 
23 | Nc1c(/N=N/c2ccc(-c3ccc(/N=N/c4c(O)ccc5cc(S(=O)(=O)O)cc(S(=O)(=O)O)c45)cc3)cc2)c(S(=O)(=O)O)cc2cc(S(=O)(=O)O)c(/N=N/c3ccccc3)c(O)c12 [NCI-79741] | 
244 | Nc1ccc2cc(S(=O)(=O)O)c(/N=N/c3ccc(-c4ccc(/N=N/c5c(S(=O)(=O)O)cc6cc(S(=O)(=O)O)c(/N=N/c7cccc([N+](=O)[O-])c7)c(N)c6c5O)cc4)cc3)c(O)c2c1 [NCI-79744] | 
234 | O=S(=O)(O)c1ccccc1/N=N/c1c(S(=O)(=O)O)cc2cc(S(=O)(=O)O)c(/N=N/c3ccccc3S(=O)(=O)O)c(O)c2c1O [NCI-174066] | 
5 | O=C(Nc1ccc(/C=C/c2ccc(NC(=O)c3cc(S(=O)(=O)O)c4ccncc4c3O)cc2S(=O)(=O)O)c(S(=O)(=O)O)c1)c1cc(S(=O)(=O)O)c2ccncc2c1O [NCI-665534-P] | 

Second part, the compound before the results:

SMILES | Ki (read-out: KI) [µM] | other results
O=S(=O)(O)c1cc(O)c2c(O)c(N=Nc3c(O)c(S(=O)(=O)O)cc4cc(S(=O)(=O)O)cc(O)c34)c(S(=O)(=O)O)cc2c1 |  | Ki (inhibition of ANG-catalyzed cleavage of an RNA oligonucleotide, 20 mM Hepes, 100 mM NaCl, 37° C., read-out: KI): > 1000 µM
O=C(c1ccc(C(=O)O)c(NC(=O)c2cccc3ccccc23)c1)c1ccc(C(=O)O)c(NC(=O)c2cccc3ccccc23)c1 [CB-181431, 4,4′-dicarboxy-3,3′-bis(naphthylamido)-diphenylmethanone] |  | Ki (20 mM Hepes, 100 mM NaCl, pH 7.0, 37° C., read-out: Ki for inhibition of the ribonucleolytic activity of angiogenin): 41 µM
O=S(=O)(O)c1cc(O)c2ccc(Nc3ccc4c(O)cc(S(=O)(=O)O)cc4c3)cc2c1 [NCI-1698] | 172 | 
Nc1cccc(C(=O)Nc2ccc3c(O)cc(S(=O)(=O)O)cc3c2)c1 [NCI-1743] |  | KI [1]: in- active at 75 uM
Cc1ccc(/N=N/c2c(O)ccc3cc(S(=O)(=O)O)ccc23)cc1 [NCI-7814] | 175 | 
O=[N+]([O-])c1ccc(/N=N/c2c(S(=O)(=O)O)cc3cc(S(=O)(=O)O)ccc3c2O)c([N+](=O)[O-])c1 [NCI-9360] | 307 | 
COc1cc(-c2ccc(/N=N/c3ccc4c(S(=O)(=O)O)cc(S(=O)(=O)O)c(N)c4c3O)c(OC)c2)ccc1/N=N/c1ccc2c(S(=O)(=O)O)cc(S(=O)(=O)O)c(N)c2c1O [NCI-9617, Chicago Sky Blue 6B] | 5 | 
O=C(O)c1ccccc1/N=N/c1c(O)c(S(=O)(=O)O)cc2cc(S(=O)(=O)O)ccc12 [NCI-12455] | 239 | 
Nc1c(OCC(=O)O)ccc2cc(S(=O)(=O)O)ccc12 [NCI-16163] |  | KI [1]: in- active at 75 uM
O=C(Nc1cc(S(=O)(=O)O)cc2cc(S(=O)(=O)O)cc(O)c12)c1ccccc1 [NCI-16169] |  | KI [1]: in- active at 75 uM
COc1ccc(/C=N/c2c(O)ccc3ccccc23)cc1OC [NCI-17061] | 900 | 
O=C(Nc1ccc2cc(S(=O)(=O)O)ccc2c1)c1ccc([N+](=O)[O-])cc1 [NCI-37169] | 950 | 
Nc1ccc(C(=O)Nc2cc(S(=O)(=O)O)cc3cccc(O)c23)cc1 [NCI-37176] | 104 | 
O=[N+]([O-])c1ccc(/N=N/c2c(O)ccc3cc(S(=O)(=O)O)ccc23)cc1 [NCI-45538] | 305 | 
O=[N+]([O-])c1ccc(/N=N/c2c(O)c(S(=O)(=O)O)cc3cc(S(=O)(=O)O)ccc23)cc1 [NCI-45540] | 307 | 
O=[N+]([O-])c1cccc(/N=N/c2c(O)c(S(=O)(=O)O)cc3cc(S(=O)(=O)O)ccc23)c1 [NCI-45541] | 244 | 
O=[N+]([O-])c1ccc(/N=N/c2c(S(=O)(=O)O)cc3cc(S(=O)(=O)O)cc(O)c3c2O)cc1 [NCI-45542] | 426 | 
Nc1cc(S(=O)(=O)O)cc2cc(S(=O)(=O)O)c(/N=N/c3ccc([N+](=O)[O-])cc3)c(O)c12 [NCI-45550] | 183 | 

SMILES | Ki (read-out: KI) [µM] | other results
Cc1ccc(/N=N/c2c(N)ccc3cc(S(=O)(=O)O)ccc23)c(C)c1 [NCI-45569] | 194 | 
CC(=O)Nc1ccc(/N=N/c2ccc(N)c3cc(S(=O)(=O)O)ccc23)cc1 [NCI-45571] | 300 | 
O=C(O)c1cc(/N=N/c2ccc(/N=N/c3c(Nc4ccccc4)ccc4cc(S(=O)(=O)O)cc(O)c34)cc2)ccc1O [NCI-45612] | 158 | 
Nc1ccc(/N=N/c2ccc(-c3ccc(/N=N/c4ccc(N)c5cc(S(=O)(=O)O)ccc45)cc3)cc2)c2ccc(S(=O)(=O)O)cc12 [NCI-45618] | 15 | 
O=C(O)c1c(O)ccc(/N=N/c2ccc(/N=N/c3ccc4c(S(=O)(=O)O)cccc4c3O)c3ccccc23)c1O [NCI-47735] | 85 | 
O=[N+]([O-])c1ccc(/N=N/c2c(O)c(/N=N/c3cc([N+](=O)[O-])cc([N+](=O)[O-])c3O)cc(/N=N/c3cc(S(=O)(=O)O)cc4cc(S(=O)(=O)O)cc(O)c34)c2O)cc1 [NCI-47740] | 15 | 
O=S(=O)(O)c1ccc(/N=N/c2ccc(/N=N/c3c(O)ccc4cc(S(=O)(=O)O)ccc34)cc2)cc1 [NCI-58047] | 36 | 
O=S(=O)(O)c1ccc(/N=N/c2ccc(/N=N/c3c(O)ccc4cc(S(=O)(=O)O)cc(S(=O)(=O)O)c34)cc2)cc1 [NCI-65546] | 129 | 
COc1cc(/N=N/c2ccc(S(=O)(=O)O)cc2)ccc1/N=N/c1c(O)ccc2cc(S(=O)(=O)O)ccc12 [NCI-65553] | 29 | 
Nc1ccc2cc(S(=O)(=O)O)cc(O)c2c1/N=N/c1ccc(-c2ccc(/N=N/c3c(S(=O)(=O)O)cc4cc(S(=O)(=O)O)c(/N=N/c5ccc([N+](=O)[O-])cc5)c(N)c4c3O)cc2)cc1 [NCI-65855] | 129 | 
CC(=O)Nc1ccc(/N=N/c2ccc3cc(S(=O)(=O)O)cc(NC(C)=O)c3c2O)cc1 [NCI-73416] | 77 | 
Nc1c(/N=N/c2cc(Cl)ccc2Cl)c(S(=O)(=O)O)cc2cc(S(=O)(=O)O)c(/N=N/c3ccc(Sc4ccc(/N=N/c5ccc(O)cc5)cc4)cc3)c(O)c12 [NCI-75661] | 76 | 
Nc1ccc2cc(S(=O)(=O)O)cc(O)c2c1/N=N/c1ccc(-c2ccc(/N=N/c3c(N)ccc4cc(S(=O)(=O)O)cc(O)c34)cc2)cc1 [NCI-75778] | 171 | 
Cc1nn(-c2cc(S(=O)(=O)O)ccc2Cl)c(O)c1/N=N/c1c(NC(=O)c2ccc(N)cc2)ccc2cc(S(=O)(=O)O)ccc12 [NCI-75963] | 129 | 
Nc1ccc(/N=N/c2ccc(-c3ccc(/N=N/c4c(S(=O)(=O)O)cc5cc(S(=O)(=O)O)c(/N=N/c6ccccc6)c(O)c5c4N)cc3)cc2)c2ccc(S(=O)(=O)O)cc12 [NCI-79596] | 5 | 
O=S(=O)(O)c1cc(O)c2c(/N=C/c3ccccc3O)cc(S(=O)(=O)O)cc2c1 [NCI-88947] |  | KI [1]: in- active at 75 uM
O=C(O)CC(NC(=O)CP(=O)(O)O)C(=O)O (centres unmarked) [NCI-224131] |  | Ki: > 500 µM
Nc1ccc(/N=N/c2ccc(-c3ccc(S(=O)(=O)O)cc3)cc2)c2ccc(S(=O)(=O)O)cc12 [NCI-724225] | 81 | 
